Laboratory results taken from US10377757B2, “Crystal form of JAK inhibitor and preparation method thereof” (CRYSTAL PHARMATECH CO., LTD, priority 2015, dated 2019).
Entries after “also recorded” stand apart in the source; their conditions may differ.

Columns and labels:
[1] = biological target: JAK2 (Homo sapiens, UniProt O60674); details: kinase detection, selectivity over JAK3; cited from earlier work
[2] = Stability assessment: storage under stress conditions, XRPD after storage; format: physicochemical; details: for stability (overall conclusion in words): solid form stability on storage; for Form Change: XRPD
Experimental: The crystalline Form I of the present disclosure was stored under 5° C., 25° C./60% RH and 40° C./75% relative humidity for 90 days. XRPD patterns were collected after storage.
The crystalline Form II of the present disclosure was stored under 5° C. and 25° C./60% RH. XRPD patterns were collected after storage.
Phosphate Form A of the present disclosure was stored under 5° C., 25° C./60% RH and 40° C./75% RH for 90 days. XRPD patterns were collected after storage.
Two of 10 mg of phosphate Form C were respectively opened stored at 25° C./60% RH and 40° C./75% RH for 30 days. XRPD and purity of the sample were collected after storage.

[3] = Hygroscopicity assessment by dynamic vapor sorption (DVS); format: physicochemical; details: for weight gain under 80% Relative Humidity: DVS, 10 mg sample, 80% RH
Experimental: Hygroscopicity of 10 mg Form I of the present disclosure was tested using dynamic vapor sorption (DVS). 5.
(§1) About hygroscopicity characterization description and definition of hygroscopicity (Chinese Pharmacopoeia 2010 edition appendix XIXJ Drug hygroscopic test guidelines, test at 25° C.+/−1° C., 80% Relative Humidity) • deliquescent: sufficient water is absorbed to form a liquid; • very hygroscopic: increase in mass is equal to or greater than 15 percent; • hygroscopic: increase in mass is less than 15 percent and equal to or greater than 2 percent; • slightly hygroscopic: increase in mass is less than 2 percent and equal to or greater than 0.2 percent. • no or almost no hygroscopic: increase in mass is less than 0.2%.
Hygroscopicity of 10 mg of phosphate crystalline Form A and phosphate crystalline Form C of the present disclosure were tested using dynamic vapor sorption (DVS). The DVS plot of phosphate crystalline Form A is shown in FIG. 23, The DVS plot of phosphate crystalline Form C is shown in FIG. 24.
as §1, with “Pharmacopoeia” for “About hygroscopicity characterization description and definition of hygroscopicity (Chinese Pharmacopoeia”

[4] = stored at 25° C./60% RH for 30 days
[5] = stored at 25° C./60% RH for 90 days
[6] = stored at 40° C./75% RH for 90 days

JAK2, sequence (O60674 whole entry): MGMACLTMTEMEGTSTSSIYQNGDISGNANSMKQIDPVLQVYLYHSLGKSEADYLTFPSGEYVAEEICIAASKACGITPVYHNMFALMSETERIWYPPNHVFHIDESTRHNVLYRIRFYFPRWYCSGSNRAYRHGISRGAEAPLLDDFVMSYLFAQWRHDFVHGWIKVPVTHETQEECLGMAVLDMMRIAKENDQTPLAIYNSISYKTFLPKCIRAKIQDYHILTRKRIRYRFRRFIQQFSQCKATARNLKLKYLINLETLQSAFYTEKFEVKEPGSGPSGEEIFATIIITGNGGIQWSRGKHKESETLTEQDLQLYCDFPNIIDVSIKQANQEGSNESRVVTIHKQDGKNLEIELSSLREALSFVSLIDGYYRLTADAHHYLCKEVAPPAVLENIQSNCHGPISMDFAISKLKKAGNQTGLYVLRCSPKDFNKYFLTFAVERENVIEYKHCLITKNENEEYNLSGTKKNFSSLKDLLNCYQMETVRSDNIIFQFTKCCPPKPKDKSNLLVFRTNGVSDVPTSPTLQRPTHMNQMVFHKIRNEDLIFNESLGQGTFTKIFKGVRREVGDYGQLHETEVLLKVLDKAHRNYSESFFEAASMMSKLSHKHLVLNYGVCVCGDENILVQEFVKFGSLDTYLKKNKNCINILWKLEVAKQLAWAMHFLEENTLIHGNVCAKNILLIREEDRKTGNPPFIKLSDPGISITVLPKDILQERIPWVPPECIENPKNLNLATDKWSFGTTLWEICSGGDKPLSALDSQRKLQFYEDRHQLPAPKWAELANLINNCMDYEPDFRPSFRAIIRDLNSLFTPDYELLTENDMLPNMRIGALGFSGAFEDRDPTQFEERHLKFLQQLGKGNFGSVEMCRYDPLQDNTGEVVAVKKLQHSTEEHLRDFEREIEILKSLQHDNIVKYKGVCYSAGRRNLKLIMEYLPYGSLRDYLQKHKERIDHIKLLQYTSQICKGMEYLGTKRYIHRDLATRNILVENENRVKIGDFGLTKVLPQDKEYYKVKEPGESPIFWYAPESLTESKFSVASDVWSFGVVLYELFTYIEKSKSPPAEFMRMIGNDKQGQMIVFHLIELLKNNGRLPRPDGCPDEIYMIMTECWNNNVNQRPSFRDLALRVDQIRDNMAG

SMILES	stability (overall conclusion in words) [2]	Form Change ([2]; stored at 5° C. for 90 days)	Form Change [2, 4]	Form Change [2, 5]	Form Change [2, 6]	weight gain under 80% Relative Humidity [3] [%]	further results
CCS(=O)(=O)N1CC(CC#N)(n2cc(-c3ncnc4[nH]ccc34)cn2)C1 [Baricitinib]							inhibition strength for JAK2 relative to JAK3 [1]: 100 times
CCS(=O)(=O)N1CC(CC#N)(n2cc(-c3ncnc4[nH]ccc34)cn2)C1 [Form II]	good stability	remains unchanged; also recorded: Form II remain unchanged	remains unchanged; also recorded: Form II remain unchanged				
CCS(=O)(=O)N1CC(CC#N)(n2cc(-c3ncnc4[nH]ccc34)cn2)C1 [Form I]	good stability	remains unchanged; also recorded: Form I remain unchanged		remains unchanged; also recorded: Form I remain unchanged	remains unchanged; also recorded: Form I remain unchanged		hygroscopicity class ([3]; Chinese Pharmacopoeia 2010 definition, 25° C.+/-1° C., 80% Relative Humidity): slightly hygroscopic (slightly hygroscopic: increase in mass is less than 2 percent and equal to or greater than 0.2 percent); weight gain under 80% Relative Humidity ([3]; listed as Form I of the compound Formula (I)): 0.44%
CCS(=O)(=O)N1CC(CC#N)(n2cc(-c3ncnc4[nH]ccc34)cn2)C1 [phosphate Form A]	good stability	remains unchanged		remains unchanged	remains unchanged	0.99	weight gain under 80% Relative Humidity ([3]; listed as phosphate Form A of the compound Formula (I)): 0.99%; Form Change ([2]; stored at 5° C. for 90 days, listed as Phosphate Crystalline Form A): Form A remain unchanged; Form Change ([2]; stored at 25° C./60% RH for 90 days, listed as Phosphate Crystalline Form A): Form A remain unchanged; Form Change ([2]; stored at 40° C./75% RH for 90 days, listed as Phosphate Crystalline Form A): Form A remain unchanged
CCS(=O)(=O)N1CC(CC#N)(n2cc(-c3ncnc4[nH]ccc34)cn2)C1 [phosphate Form C]			Form C remain			2.85	weight gain under 80% Relative Humidity ([3]; listed as phosphate Form C of the compound Formula (I)): 2.85%; Form Change ([2]; stored at 40° C./75% RH for 30 days): Form C remain
